Where two headings read alike, the source gives them in different places.
Assays:
human MMP14 = human MMP14 (Homo sapiens (Human), UniProt P50281); details: read-out: hMMP-14 potency IC50
rnADAMTS-5 (1-564-6H) = rnADAMTS-5 (1-564-6H) (Rattus norvegicus, UniProt Q6TY19); details: read-out: Rat ADAMTS-5 potency IC50
human MMP13 [1] = biological target: T1, human MMP13 (Homo sapiens (Human), UniProt P45452); details: read-out: hMMP-13 potency IC50
Method: Human MMP13 is preactivated by incubated the enzyme in the same buffer complemented with 1 mM freshly prepared p-Aminophenylmercuric acetate (AMPA) for 1 hour at 37° C.

human TACE = human TACE (Homo sapiens (Human), UniProt P78536); details: read-out: TACE potency IC50
human ADAMTS-5 [2] = biological target: T2, human ADAMTS-5 (Homo sapiens (Human), UniProt Q9UNA0); details: read-out: hADAMTS-5 potency IC50
Method: Finally, the fluorescence is read on the Envision (Perkin Elmer) after an incubation of 90 min at 37° C.

human MMP13 [3] = biological target: T1, human MMP13; details: read-out: hMMP-13 potency IC50; remark: listed apart in the source
Method: The reaction is initiated by adding to the assay plate 520 MMP-fret substrate XV (10 μL, 4 μM) in the same buffer.

human ADAMTS-5 [4] = biological target: T2, human ADAMTS-5; details: read-out: hADAMTS-5 potency IC50; remark: listed apart in the source

T2 sequence (Q9UNA0 262-930): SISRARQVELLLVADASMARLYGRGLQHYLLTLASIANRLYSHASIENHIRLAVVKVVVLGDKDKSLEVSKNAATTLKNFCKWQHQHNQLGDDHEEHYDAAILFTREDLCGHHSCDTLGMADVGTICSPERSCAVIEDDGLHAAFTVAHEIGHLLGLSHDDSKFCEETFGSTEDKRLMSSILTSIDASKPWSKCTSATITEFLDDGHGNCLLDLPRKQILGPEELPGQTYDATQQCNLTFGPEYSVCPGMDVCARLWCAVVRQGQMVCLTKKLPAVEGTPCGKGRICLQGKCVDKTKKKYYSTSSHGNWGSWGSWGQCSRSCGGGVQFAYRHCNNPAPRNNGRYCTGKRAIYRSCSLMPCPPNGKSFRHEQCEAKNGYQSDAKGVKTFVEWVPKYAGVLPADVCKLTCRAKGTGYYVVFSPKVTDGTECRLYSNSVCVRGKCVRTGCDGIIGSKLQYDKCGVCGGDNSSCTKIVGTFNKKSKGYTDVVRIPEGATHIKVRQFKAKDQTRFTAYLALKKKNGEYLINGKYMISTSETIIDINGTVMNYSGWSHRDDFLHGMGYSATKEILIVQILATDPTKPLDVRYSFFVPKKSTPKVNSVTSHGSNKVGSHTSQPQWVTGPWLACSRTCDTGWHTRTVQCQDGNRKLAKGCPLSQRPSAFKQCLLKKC
human TACE, sequence (P78536 whole entry, looked up, change not shown): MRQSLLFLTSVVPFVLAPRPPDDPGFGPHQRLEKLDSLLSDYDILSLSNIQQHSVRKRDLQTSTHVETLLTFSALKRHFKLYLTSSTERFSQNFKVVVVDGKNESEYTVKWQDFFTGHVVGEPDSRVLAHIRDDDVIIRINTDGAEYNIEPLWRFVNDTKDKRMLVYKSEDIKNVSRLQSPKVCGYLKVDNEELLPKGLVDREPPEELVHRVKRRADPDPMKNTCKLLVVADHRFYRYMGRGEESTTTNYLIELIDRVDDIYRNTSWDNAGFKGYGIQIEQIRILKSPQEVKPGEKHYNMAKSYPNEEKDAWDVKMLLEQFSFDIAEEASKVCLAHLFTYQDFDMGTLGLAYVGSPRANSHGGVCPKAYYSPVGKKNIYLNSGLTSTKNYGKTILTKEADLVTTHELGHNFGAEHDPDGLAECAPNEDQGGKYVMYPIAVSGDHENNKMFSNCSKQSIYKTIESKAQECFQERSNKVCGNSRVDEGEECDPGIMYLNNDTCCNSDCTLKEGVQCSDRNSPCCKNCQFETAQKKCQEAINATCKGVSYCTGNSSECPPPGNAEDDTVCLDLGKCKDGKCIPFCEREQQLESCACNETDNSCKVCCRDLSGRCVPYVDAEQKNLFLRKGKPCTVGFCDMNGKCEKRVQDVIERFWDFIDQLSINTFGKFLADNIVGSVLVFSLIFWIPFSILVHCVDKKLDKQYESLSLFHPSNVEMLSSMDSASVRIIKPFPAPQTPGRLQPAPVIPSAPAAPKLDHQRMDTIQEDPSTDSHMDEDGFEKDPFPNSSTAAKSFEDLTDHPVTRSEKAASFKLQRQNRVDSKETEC

SMILES | IC50 (human MMP14) | IC50 (rnADAMTS-5 (1-564-6H)) | IC50 (human MMP13 [1]) | IC50 (human TACE) | IC50 (human ADAMTS-5 [2]) | IC50 (human MMP13 [3]) | IC50 (human ADAMTS-5 [4])
CC(CC1(CCS(C)(=O)=O)NC(=O)NC1=O)C(=O)N1CCN(c2cc(Cl)cc(Cl)c2)CC1 (stereo not drawn) [Cpd 218, 5-[3-[4-(3,5-dichlorophenyl)piperazin-1-yl]-2-methyl-3-oxo-propyl]-5-(2-methylsulfonylethyl)imidazolidine-2,4-dione] | 1310 nM | 17 nM | 2220 nM | 272 nM | 20 nM | – | –
CC1(CCC(=O)N2CCN(c3ccccc3)CC2)NC(=O)NC1=O (stereo not drawn) [compound 1, 5-methyl-5-[3-oxo-3-(4-phenylpiperazin-1-yl)propyl]imidazolidine-2,4-dione] | – | 730 nM | – | > 20000 nM | – | > 20000 nM | –
CC1(CCC(=O)N2CCN(c3ccc(Cl)cc3)CC2)NC(=O)NC1=O (stereo not drawn) [compound 2, 5-[3-[4-(4-chlorophenyl)piperazin-1-yl]-3-oxo-propyl]-5-methyl-imidazolidine-2,4-dione] | – | 361 nM | – | > 17500 nM | – | 2370 nM | 274 nM
O=C1NC(=O)C(CCC(=O)N2CCN(c3ccccc3)CC2)(c2ccccc2)N1 (stereo not drawn) [compound 4, 5-[3-oxo-3-(4-phenylpiperazin-1-yl)propyl]-5-phenyl-imidazolidine-2,4-dione] | – | 66 nM | – | > 5500 nM | – | 2520 nM | 114 nM
O=C1NC(=O)C(CCC(=O)N2CCN(c3cccc(Cl)c3)CC2)(c2ccccc2)N1 (stereo not drawn) [compound 6, 5-[3-[4-(3-chlorophenyl)piperazin-1-yl]-3-oxo-propyl]-5-phenyl-imidazolidine-2,4-dione] | – | 107 nM | – | 2360 nM | – | 2150 nM | –
Cc1ccccc1N1CCN(C(=O)CCC2(c3ccccc3)NC(=O)NC2=O)CC1 (stereo not drawn) [compound 7, 5-[3-[4-(o-tolyl)piperazin-1-yl]-3-oxo-propyl]-5-phenyl-imidazolidine-2,4-dione] | – | 272 nM | – | > 2930 nM | – | > 20000 nM | 272 nM
Cc1cccc(N2CCN(C(=O)CCC3(c4ccccc4)NC(=O)NC3=O)CC2)c1C (stereo not drawn) [compound 8, 5-[3-[4-(2,3-dimethylphenyl)piperazin-1-yl]-3-oxo-propyl]-5-phenyl-imidazolidine-2,4-dione] | – | 157 nM | – | > 3220 nM | – | > 20000 nM | 142 nM
O=C1NC(=O)C(CCC(=O)N2CCN(c3ccc4ccccc4c3)CC2)(c2ccccc2)N1 (stereo not drawn) [compound 9, 5-[3-[4-(2-naphthyl)piperazin-1-yl]-3-oxo-propyl]-5-phenyl-imidazolidine-2,4-dione] | – | 331 nM | – | 2500 nM | – | 1480 nM | 316 nM
O=C1NC(=O)C(CCC(=O)N2CCN(c3ccc(Cl)c(F)c3)CC2)(c2ccccc2)N1 (stereo not drawn) [compound 10, 5-[3-[4-(4-chloro-3-fluoro-phenyl)piperazin-1-yl]-3-oxo-propyl]-5-phenyl-imidazolidine-2,4-dione] | – | 41 nM | – | > 2790 nM | – | 285 nM | 56 nM
Cc1cccc(N2CCN(C(=O)CCC3(C)NC(=O)NC3=O)CC2)c1C (stereo not drawn) [compound 11, 5-[3-[4-(2,3-dimethylphenyl)piperazin-1-yl]-3-oxo-propyl]-5-methyl-imidazolidine-2,4-dione] | – | 1170 nM | – | > 20000 nM | – | > 20000 nM | 988 nM
Cc1ccccc1N1CCN(C(=O)CCC2(C)NC(=O)NC2=O)CC1 (stereo not drawn) [compound 12, 5-methyl-5-[3-[4-(o-tolyl)piperazin-1-yl]-3-oxo-propyl]imidazolidine-2,4-dione] | – | 1160 nM | – | > 4000 nM | – | > 20000 nM | –
Cc1cc(Cl)ccc1N1CCN(C(=O)CCC2(c3ccccc3)NC(=O)NC2=O)CC1 (stereo not drawn) [compound 13, 5-[3-[4-(4-chloro-2-methyl-phenyl)piperazin-1-yl]-3-oxo-propyl]-5-phenyl-imidazolidine-2,4-dione] | – | 966 nM | – | 1170 nM | – | > 20000 nM | 836 nM
Cc1ccccc1N1CCN(C(=O)CC[C@@]2(c3ccccc3)NC(=O)NC2=O)CC1 [compound 27, (5S)-5-[3-[4-(o-tolyl)piperazin-1-yl]-3-oxo-propyl]-5-phenyl-imidazolidine-2,4-dione] | > 20000 nM | 124 nM | > 20000 nM | > 2000 nM | – | – | 90 nM
Cc1ccc(Cl)cc1N1CCN(C(=O)CCC2(C3CC3)NC(=O)NC2=O)CC1 (stereo not drawn) [compound 36, 5-[3-[4-(5-chloro-2-methyl-phenyl)piperazin-1-yl]-3-oxo-propyl]-5-cyclopropyl-imidazolidine-2,4-dione] | > 20000 nM | 29 nM | > 20000 nM | 670 nM | – | – | 34 nM
CC1(CCC(=O)N2CCN(c3cc(Cl)cc(Cl)c3)CC2)NC(=O)NC1=O (stereo not drawn) [compound 40, 5-[3-[4-(3,5-dichlorophenyl)piperazin-1-yl]-3-oxo-propyl]-5-methyl-imidazolidine-2,4-dione] | > 20000 nM | 234 nM | > 20000 nM | 2720 nM | – | – | –
O=C1NC(=O)C(CCC(=O)N2CCN(c3cc(Cl)cc(Cl)c3)CC2)(C2CC2)N1 (stereo not drawn) [compound 55, 5-cyclopropyl-5-[3-[4-(3,5-dichlorophenyl)piperazin-1-yl]-3-oxo-propyl]imidazolidine-2,4-dione] | > 20000 nM | 37 nM | > 20000 nM | > 3310 nM | – | – | –
O=C1NC(=O)[C@](CCC(=O)N2CCN(c3cc(Cl)cc(Cl)c3)CC2)(C2CC2)N1 [compound 173, (5S)-5-cyclopropyl-5-[3-[4-(3,5-dichlorophenyl)piperazin-1-yl]-3-oxo-propyl]imidazolidine-2,4-dione] | > 20000 nM | 21 nM | > 20000 nM | 3140 nM | 22 nM | – | –
C[C@H]1CN(C(=O)CC[C@@]2(C3CC3)NC(=O)NC2=O)CCN1c1cccc(F)c1 [compound 203, (5S)-5-cyclopropyl-5-[3-[(3S)-4-(3-fluorophenyl)-3-methyl-piperazin-1-yl]-3-oxo-propyl]imidazolidine-2,4-dione] | > 4000 nM | 26 nM | > 20000 nM | > 20000 nM | 46 nM | – | –
C[C@H]1CN(C(=O)CC[C@@]2(C3CC3)NC(=O)NC2=O)CCN1c1cc(Cl)cc(Cl)c1 [compound 204, (5S)-5-cyclopropyl-5-[3-[(3S)-4-(3,5-dichlorophenyl)-3-methyl-piperazin-1-yl]-3-oxo-propyl]imidazolidine-2,4-dione] | > 20000 nM | 11 nM | > 12000 nM | 3870 nM | 16 nM | – | –
C[C@H]1CN(C(=O)CC[C@@]2(C3CC3)NC(=O)NC2=O)CCN1c1ccc(F)c(F)c1 [compound 205, (5S)-5-cyclopropyl-5-[3-[(3S)-4-(3,4-difluorophenyl)-3-methyl-piperazin-1-yl]-3-oxo-propyl]imidazolidine-2,4-dione] | > 4000 nM | 27 nM | > 20000 nM | > 20000 nM | 26 nM | – | –
CC(CC1(CCN)NC(=O)NC1=O)C(=O)N1CCN(c2cc(Cl)cc(Cl)c2)CC1 (stereo not drawn) [compound 210, 5-(2-aminoethyl)-5-[3-[4-(3,5-dichlorophenyl)piperazin-1-yl]-2-methyl-3-oxo-propyl]imidazolidine-2,4-dione] | > 20000 nM | 105 nM | > 14700 nM | 1440 nM | 108 nM | – | –
CC(CC1(C)NC(=O)NC1=O)C(=O)N1CCN(c2cccc(Cl)c2)[C@@H](C)C1 (stereo partly drawn) [compound 214, 5-[3-[(3S)-4-(3-chlorophenyl)-3-methyl-piperazin-1-yl]-2-methyl-3-oxo-propyl]-5-methyl-imidazolidine-2,4-dione] | 1230 nM | 30 nM | > 3510 nM | > 4000 nM | 61 nM | – | –
CC(CC1(C)NC(=O)NC1=O)C(=O)N1CCN(c2cccc(F)c2)[C@@H](C)C1 (stereo partly drawn) [compound 215, 5-[3-[(3S)-4-(3-fluorophenyl)-3-methyl-piperazin-1-yl]-2-methyl-3-oxo-propyl]-5-methyl-imidazolidine-2,4-dione] | 2600 nM | 18 nM | > 4000 nM | > 12000 nM | 37 nM | – | –
CC(CC1(C)NC(=O)NC1=O)C(=O)N1CCN(c2ccccc2)[C@@H](C)C1 (stereo partly drawn) [compound 217, 5-methyl-5-[2-methyl-3-[(3S)-3-methyl-4-phenyl-piperazin-1-yl]-3-oxo-propyl]imidazolidine-2,4-dione] | > 4000 nM | 49 nM | > 4000 nM | > 4000 nM | 59 nM | – | –
CC(CC1(CN2CCOCC2)NC(=O)NC1=O)C(=O)N1CCN(c2cc(Cl)cc(Cl)c2)CC1 (stereo not drawn) [compound 242, 5-[3-[4-(3,5-dichlorophenyl)piperazin-1-yl]-2-methyl-3-oxo-propyl]-5-(morpholinomethyl)imidazolidine-2,4-dione] | > 20000 nM | 57 nM | > 20000 nM | 2520 nM | 66 nM | – | –
CC(=O)N1CC(C2(CC(C)C(=O)N3CCN(c4ccc(F)c(F)c4)[C@@H](C)C3)NC(=O)NC2=O)C1 (stereo partly drawn) [compound 249, 5-(1-acetylazetidin-3-yl)-5-[3-[(3S)-4-(3,4-difluorophenyl)-3-methyl-piperazin-1-yl]-2-methyl-3-oxo-propyl]imidazolidine-2,4-dione] | 1230 nM | 34 nM | > 4000 nM | > 19600 nM | 36 nM | – | –

From patent US9926281B2 (priority 2014, dated 2018)
